This note sets out measurements from ChEMBL document CHEMBL1201862, “PubChem BioAssay data set” (2004).

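How tested: cells in 96-well plates exposed to compound for 48 hours at five concentrations. At the GI50, growth is halved.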 Active and inactive are the calls of the source. Rule as the data show it: active = GI50 up to about 1.1 µM and inactive = higher. Some results are limits rather than exact numbers.

What all share (experiment): NCI anticancer screen, dose series, 48 h
For assay [1], the system named is HT-29.
Assay [2] has as its system SK-MEL-2.
Assay [3] concerns A549.
For assay [4], the system named is MCF7.
For assay [5], the system named is OVCAR-3.
Assay [6] has as its system IGROV-1.
In assay [7] the test system is NCI/ADR-RES.
The subject of assay [8] is CAKI-1.
The subject of assay [9] is MDA-MB-435.
In assay [10] the test system is LOX IMVI.
The test system of assay [11] is EKVX.
Assay [12] concerns MOLT-4.
The test system of assay [13] is SNB-19.
Assay [14] relates to BT-549.
The test system of assay [15] is OVCAR-5.
Assay [16] has as its system M14.
The test system of assay [17] is NCI-H226.
The subject of assay [18] is HCT-116.
The subject of assay [19] is PC-3.
Assay [20] has as its system K562.

Turning to `O=[N+]([O-])c1ccc(NN/N=N/c2ccc(-c3nc4ccccc4[nH]3)cc2)c([N+](=O)[O-])c1`, the GI50 in [1] is 36.5 µM (inactive); in assay [2], 29 µM (inactive); in assay [3], 58.3 µM (inactive); in assay [4] it was 4.27 µM (inactive); in assay [5], 28.4 µM (inactive); in assay [6], 7.33 µM (inactive). In addition, the GI50 in assay [7] was 45.7 µM (inactive); in [8], 23.2 µM (inactive); in assay [9], 54 µM (inactive); in [10], 7.48 µM (inactive); in assay [11], 17.4 µM (inactive); in [12], 5.14 µM (inactive). Moreover, the GI50 is > 100 µM (inactive) in assay [13]; 48.3 µM (inactive) in [14]; > 100 µM (inactive) in [15]; 23.1 µM (inactive) in assay [16]; 43.2 µM (inactive) in assay [17]; 26.7 µM (inactive) in assay [18]. Also, the GI50 was 27.8 µM (inactive) in [19] and 6.52 µM (inactive) in assay [20].

As for `N=C(N)SCCCN`, the GI50 in assay [1] is 16 µM (inactive); in [2], 13.2 µM (inactive); in [3], 37.7 µM (inactive); in [4], 5.5 µM (inactive); in assay [5], 9.57 µM (inactive); in assay [6], 3.83 µM (inactive). For the same molecule, the GI50 was 5.02 µM (inactive) in [7]; 4.32 µM (inactive) in assay [8]; 3.18 µM (inactive) in [9]; 3.3 µM (inactive) in [10]; 35.4 µM (inactive) in assay [11]; 0.368 µM (active) in [12]. Besides, the GI50 is 20.7 µM (inactive) in assay [13]; 4.06 µM (inactive) in assay [14]; 32.6 µM (inactive) in [15]; 3.52 µM (inactive) in assay [16]; 18.3 µM (inactive) in assay [17]; 3.86 µM (inactive) in [18]. Also, the results for the GI50 in [19] and in assay [20] were 15.6 µM (inactive) and 6.03 µM (inactive), respectively.

Turning to `C=CCC(C(=O)O)c1ccccc1` (stereo not given), the GI50 in assay [1], in [2], in assay [3], in [4], in [5] and in assay [6] was > 100 µM (inactive) each time. Moreover, the GI50 in assay [7], in [8], in assay [9], in assay [10], in assay [11] and in assay [12] was > 100 µM (inactive) throughout. Also, the GI50 in assay [13], in assay [14], in assay [15], in [16], in assay [17] and in [18] was > 100 µM (inactive) each time. Also, the GI50 in assay [19] and in [20] was > 100 µM (inactive) throughout.

In the case of `O=C(CC(=O)Nc1ccccc1)NNC(Sc1ccccc1)c1cc(/N=N/c2ccc(Br)cc2)ccc1O` (stereo not given), the GI50 in assay [1] is 8.13 µM (inactive); in assay [2], > 10 µM (inactive); in [3], 3.85 µM (inactive); in [4], 1.78 µM (inactive); in [5], 0.394 µM (active); in assay [6], 5.07 µM (inactive). The GI50 was 1.26 µM (inactive) in assay [7]; 4.82 µM (inactive) in [8]; 4.28 µM (inactive) in assay [9]; 2.49 µM (inactive) in [10]; 8.83 µM (inactive) in assay [11]; 0.0916 µM (active) in assay [12]. In addition, the GI50 in [13] was > 10 µM (inactive); in [14] it was 5.12 µM (inactive); in assay [15], 7.98 µM (inactive); in assay [16], 0.973 µM (active); in assay [17] it was 0.444 µM (active); in [18] it was 0.448 µM (active). The GI50 is 1.45 µM (inactive) in assay [19] and 2.54 µM (inactive) in [20].

For the molecule `CCCCCCCCCCCCc1ccsc1-c1ccc(-c2ccc(-c3sccc3CCCCCCCCCCCC)s2)s1`, the GI50 in assay [1], in assay [2], in [3], in assay [4], in assay [5] and in [6] was > 100 µM (inactive) in each case. Also, the GI50 in assay [7], in [8], in [9], in assay [10], in [11] and in [12] was > 100 µM (inactive) in each case. The GI50 in assay [13], in [14], in assay [15], in assay [16], in assay [17] and in assay [18] was > 100 µM (inactive) in each case. Moreover, the GI50 in [19] and in assay [20] was > 100 µM (inactive) each time.

As to `O=C(NC(Nc1ccc(F)c(Cl)c1)(C(F)(F)F)C(F)(F)F)OCc1ccccc1`, the GI50 in assay [1] was 34 µM (inactive); in assay [2] it was 69.3 µM (inactive); in assay [3] it was 43 µM (inactive); in [4] it was 19.4 µM (inactive); in assay [5], 17.3 µM (inactive); in [6], 39 µM (inactive). The GI50 in [7] was 27.7 µM (inactive); in assay [8] it was 34.6 µM (inactive); in assay [9] it was 32.1 µM (inactive); in [10], 64.7 µM (inactive); in [11] it was 26.4 µM (inactive); in assay [12], 26.4 µM (inactive). For the same molecule, the GI50 was 20.9 µM (inactive) in [13]; 14.7 µM (inactive) in [14]; > 100 µM (inactive) in assay [15]; 37 µM (inactive) in [16]; > 100 µM (inactive) in assay [17]; 47.5 µM (inactive) in assay [18]. The values for the GI50 in assay [19] and in assay [20] were 17.4 µM (inactive) and 10.8 µM (inactive), respectively.

Take `O=C1/C(=C\c2ccccc2)C(NC2CCCCC2)c2ccccc21` (stereo not given): the GI50 in [1] was 1.42 µM (inactive); in assay [2], 2.24 µM (inactive); in assay [3], 4.05 µM (inactive); in assay [4], 1.37 µM (inactive); in assay [5], 1.24 µM (inactive); in assay [6] it was 2.99 µM (inactive). The GI50 in assay [7] was 3.65 µM (inactive); in assay [8] it was 1.48 µM (inactive); in [9], 1.52 µM (inactive); in assay [10] it was 1.66 µM (inactive); in assay [11] it was 3.3 µM (inactive); in [12], 0.817 µM (active). Besides, the GI50 in assay [13] is 10.5 µM (inactive); in [14], 2.36 µM (inactive); in [15] it was 4.17 µM (inactive); in assay [16], 1.54 µM (inactive); in assay [17], 6.24 µM (inactive); in [18] it was 0.959 µM (active). The values for the GI50 in assay [19] and in assay [20] were 1.78 µM (inactive) and 0.46 µM (active), respectively.

As for `COC(=O)c1c(O)ccc2c1c1c(n2CCc2ccccc2)C(=O)c2ccccc2C1=O`, the GI50 in assay [1] was 11.8 µM (inactive); in assay [2], 15.1 µM (inactive); in [3], 8.97 µM (inactive); in assay [4] it was 9.02 µM (inactive); in assay [5], 6.7 µM (inactive); in [6] it was 11.9 µM (inactive). For the same molecule, the GI50 in [7] was 6.9 µM (inactive); in assay [8], 13.1 µM (inactive); in assay [9], 7.03 µM (inactive); in assay [10], 15.7 µM (inactive); in assay [11] it was 20.7 µM (inactive); in assay [12], 4.06 µM (inactive). For the same molecule, the GI50 in [13] was 17.5 µM (inactive); in [14], 15.4 µM (inactive); in assay [15], 20.2 µM (inactive); in assay [16], 15.4 µM (inactive); in assay [17] it was 14.6 µM (inactive); in [18], 10.9 µM (inactive). For the same molecule, the GI50 in [19] is 11.6 µM (inactive); in [20], 8.38 µM (inactive).

For `O=C(NNC(=O)c1ccncc1)C(=O)Nc1cc(Cl)c(Cl)cc1Cl`, the GI50 is > 100 µM (inactive) in assay [1]; > 100 µM (inactive) in assay [2]; > 100 µM (inactive) in assay [3]; > 100 µM (inactive) in assay [4]; > 100 µM (inactive) in assay [5]; 45.6 µM (inactive) in [6]. The GI50 in [7], in assay [8], in assay [9], in assay [10], in [11] and in assay [12] was > 100 µM (inactive) in each case. The GI50 in assay [13], in assay [14], in assay [15], in assay [16], in assay [17] and in [18] was > 100 µM (inactive) each time. For the same molecule, the GI50 in assay [19] and in assay [20] was > 100 µM (inactive) in each case.

`CCN(CC)CCNc1ccc2nc(C)n3c4ccc(OC)cc4c(=O)c1c23`: the GI50 in assay [1] is 0.323 µM (active); in assay [2] it was 12.4 µM (inactive); in assay [3], 0.668 µM (active); in [4] it was 0.354 µM (active); in assay [5], 3.14 µM (inactive); in [6], 0.494 µM (active). Further, the GI50 was 0.675 µM (active) in [7]; 1.86 µM (inactive) in [8]; 11.2 µM (inactive) in assay [9]; 1.15 µM (inactive) in [10]; 1.69 µM (inactive) in [11]; 0.0959 µM (active) in [12]. In addition, the GI50 in [13] is 1.03 µM (active); in [14], 5.31 µM (inactive); in assay [15] it was 4.82 µM (inactive); in assay [16] it was 10.5 µM (inactive); in assay [17] it was 0.316 µM (active); in assay [18], 0.282 µM (active). For the same molecule, the results for the GI50 in [19] and in [20] were 0.955 µM (active) and 0.401 µM (active), respectively.
